Counter-ions that a name gives are not always drawn. Like-named read-outs stand apart in the source and are kept apart here. Some results are limits rather than exact numbers.

In general, EC50 refers to the concentration that produces a half-maximal response.

Data set [1] concerns phosphorylated IRF3 protein in FaDu cell. As to the kind of experiment: Phosphorylated IRF3 protein detection in FaDu cell. The settings on record: at 30 μM; 6 hr; 2′,3′-cGAMP 30 μM = 100%. The format is cell-based, human. The protocol: Human larynx cancer cell line FaDu cell (ATCC) was seeded, the medium was replaced with serum free medium one day after the seeding. After the replacement, the cell was cultured for one day, and to the cell were added the natural ligand 2′,3′-cGAMIP (the final concentration; 30 μM) and test compound (the final concentration; 15 μM or 30 μM). 6 hr after the addition, the cell was washed with PBS, the cell extract was prepared, and the phosphorylated IRF3 protein was detected by ELISA method or Western blotting method. The IRF3 protein phosphorylation activity of the test compound was calculated when the value in the sample with adding the natural ligand 2′,3′-cGAMP at the final concentration of 30 μM was considered as 100%.

For data set [2], the target named is WT STING (Homo sapiens (Human), UniProt Q86WV6, H232R). The format is cell-based.
WT STING, sequence (Q86WV6 whole entry H232R): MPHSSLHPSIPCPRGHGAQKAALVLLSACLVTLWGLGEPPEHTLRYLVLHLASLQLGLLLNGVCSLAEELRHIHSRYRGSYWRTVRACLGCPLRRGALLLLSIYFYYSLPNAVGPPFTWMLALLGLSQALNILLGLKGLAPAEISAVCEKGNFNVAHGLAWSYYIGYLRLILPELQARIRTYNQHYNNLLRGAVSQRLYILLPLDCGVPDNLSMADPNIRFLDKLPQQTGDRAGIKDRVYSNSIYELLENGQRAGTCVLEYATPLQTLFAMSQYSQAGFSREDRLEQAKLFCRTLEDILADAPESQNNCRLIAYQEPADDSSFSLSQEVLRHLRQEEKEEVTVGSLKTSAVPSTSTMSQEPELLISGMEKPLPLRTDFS
Data set [3] in a line: Human plasma stability assay. The note with it: 37° C., 0-24 hours, LC/MS/MS. It is filed as in vitro ADME. The method, then:
The compound was incubated in heparinized human plasma at 37° C. for 0, 1, 2, 4, 8 and 24 hours, and the change in compound concentration was measured by LC/MS/MS method. The elimination rate constant (=k(/h)) was calculated based on the fitted curve assuming the exponential decrease of concentration as follows; concentration at time x=initial concentration*exp(−k*x).

Data set [4] deals with B16F10 syngeneic mice model. The data set is described as follows: Syngeneic tumor model, anti-tumor effect, B16F10. It is filed as in vivo, mouse. The note with it: C57BL/6 mice; intravenous, every 3 days, 3 times; Ex3a 30 mg/kg, Ex14 1.0 mg/kg. The protocol:
(§1) Ex14 and Ex3a were tested in syngeneic tumor models in mice. […] See FIG. 8 and FIG. 9 for the anti-tumor effect colon carcinoma CT-26 syngeneic mice model, and FIG. 10 and FIG. 11 for the anti-tumor effect in the […] B16F10 syngeneic mice model.
(§2) 8×10^4 B16F10 and 2×10^5 CT-26 mouse tumor cells were subcutaneously implanted in the flank of female C57BL/6 (B16F10) and Balb/C (CT-26) mice (n=7 per group). Vehicle (1×PBS), compound Ex3a (30 mg/kg) or Ex14 (1.0 mg/kg) were intravenously administered (final volume of 100 μL) to tumor-bearing mice once the tumor volume has reached 100 mm^3 (Day 0). Vehicle, Ex3a or Ex14 were given every 3 days for a total of 3 doses (q3dx3). Tumor and body weight measurements were taken three times per week using vernier calipers and mettler scale, respectively. Tumor volumes were determined by multiplying the square of the width (‘W’), measured along the short axis of the tumor, by one-half the length (‘L’) measured along the […]

Data set [5] has as its system THP1-Dual cells (ISG54 promoter Lucia luciferase reporter). As to the kind of experiment: THP-1 Dual Lucia reporter gene assay. The format is cell-based, human. The note with it: 20 hours incubation, read-out: THP-1 Dual cell EC50 (μM) Reporter. The protocol: THP1-Dual™ cells (InvivoGen #thpd-nfis) were derived from the human THP-1 monocyte cell line by stable integration of the Lucia luciferase gene, a secreted luciferase reporter gene, under the control of an ISG54 (interferon-stimulated gene) minimal promoter in conjunction with five interferon (IFN)-stimulated response elements. On the day of experiment, the cells were plated to a black, 384-well plate (Corning 356697) at 7500 cells/25 μL per well density in growth media (RPMI 1640, 2 mM L-glutamine, 25 mM HEPES, 10% heat-inactivated fetal bovine serum, 100 μg/mL Normocin™, 100 U/mL-100 μg/mL Pen-Strep, 10 μg/mL of blasticidin, and 100 μg/mL of Zeocin). The cell plates were dosed with 62.5 nL of the testing compounds, and then incubated at 37° C. for 20 hours. At the end of the incubation, 15 μL/well of the QUANTI-Luc™ (InvivoGen #rep-qlc1) were added, and luminescence was measured immediately using the LeadSeeker.

Data set [6] relates to colon carcinoma CT-26 syngeneic mice model. The data set is described as follows: Syngeneic tumor model, anti-tumor effect, CT-26. The format is in vivo, mouse. The note with it: Balb/C mice; intravenous, every 3 days, 3 times; Ex3a 30 mg/kg, Ex14 1.0 mg/kg. The method, then:
as §1, §2

For `Nc1ncnc2c1ncn2[C@@H]1O[C@@H]2COP(=O)(O)O[C@@H]3[C@H](O)[C@@H](COP(=O)(S)O[C@H]2[C@H]1F)O[C@H]3n1cc(F)c2c(=O)[nH]cnc21` (stereo partly drawn) [Example 3, 7-((2R,5R,7R,8R,12aR,14R,15R,15aR,16R)-14-(6-amino-9H-purin-9-yl)-15-fluoro-10,16-dihydroxy-2,10-dioxido-2-sulfanyloctahydro-12H-5,8-methanofuro[3,2-1][1,3,6,9,11,2,10]pentaoxadiphosphacyclotetradecin-7-yl)-5-fluoro-3,7-dihydro-4H-pyrrolo[2,3-d]pyrimidin-4-one 1.7 Triethylamine Salt], the “activity level of test compound, IRF3 protein phosphorylation test” value (“activity level of test compound” below) in data set [1] came to 464.6% at 30 μM. For the compound `Nc1ncnc2c1ncn2[C@@H]1O[C@@]23CO[C@@H]1[C@@H]2OP(=O)(S)OC[C@H]1O[C@@H](n2cc(F)c4c(=O)[nH]cnc42)[C@H](OP(=O)(O)OC3)[C@@H]1O` (stereo partly drawn) [Example 17, 7-((5R,7R,8R,12aR,14R,15R,15aS,18R)-14-(6-amino-9H-purin-9-yl)-10,18-dihydroxy-2,10-dioxido-2-sulfanylhexahydro-14H-15,12a-(epoxymethano)-5,8-methanofuro[3,2-1][1,3,6,9,11,2,10]pentaoxadiphosphacyclotetradecin-7(12H)-yl)-5-fluoro-3,7-dihydro-4H-pyrrolo[2,3-d]pyrimidin-4-one di-triethylamine Salt], the “activity level against WT STING of test compound (30 μM)” value (“activity level against WT STING” for short) in data set [2] was 110%. With `Nc1nc2c(ncn2[C@@H]2O[C@@H]3COP(=O)(O)O[C@@H]4[C@H](O)[C@@H](COP(=O)(O)O[C@H]3[C@H]2F)O[C@H]4n2cc(F)c3c(=O)[nH]cnc32)c(=O)[nH]1` [Example 19, 2-amino-9-((5R,7R,8R,12aR,14R,15R,15aR,16R)-15-fluoro-7-(5-fluoro-4-oxo-3,4-dihydro-7H-pyrrolo[2,3-d]pyrimidin-7-yl)-2,10,16-trihydroxy-2,10-dioxidooctahydro-12H-5,8-methanofuro[3,2-1][1,3,6,9,11,2,10]pentaoxadiphosphacyclotetradecin-14-yl)-1,9-dihydro-6H-purin-6-one di-triethylamine Salt], the “activity level against WT STING” value in data set [2] is recorded as 101%. Consider `Nc1ncnc2c1ncn2[C@@H]1O[C@@H]2COP(=O)(O)O[C@@H]3[C@H](O)[C@@H](COP(=O)(O)O[C@H]2[C@H]1F)O[C@H]3n1cc(F)c2c(=O)[nH]cnc21` [Example 1, 7-((5R,7R,8R,12aR,14R,15R,15aR,16R)-14-(6-amino-9H-purin-9-yl)-15-fluoro-2,10,16-trihydroxy-2,10-dioxidooctahydro-12H-5,8-methanofuro[3,2-1][1,3,6,9,11,2,10]pentaoxadiphosphacyclotetradecin-7-yl)-5-fluoro-3,7-dihydro-4H-pyrrolo[2,3-d]pyrimidin-4-one di-triethylamine Salt], for which the “activity level of test compound” value in data set [1] was found to be 468.8% at 30 μM. On to `Nc1ncnc2c1ncn2[C@@H]1O[C@@H]2COP(=O)(O)O[C@@H]3[C@H](O)[C@@H](COP(=O)(S)O[C@H]2[C@H]1F)O[C@H]3n1cc(F)c2c(=O)[nH]cnc21` (stereo partly drawn) [Example 3a, 7-((2R,5R,7R,8R,12aR,14R,15R,15aR,16R)-14-(6-amino-9H-purin-9-yl)-15-fluoro-10,16-dihydroxy-2,10-dioxido-2-sulfanyloctahydro-12H-5,8-methanofuro[3,2-1][1,3,6,9,11,2,10]pentaoxadiphosphacyclotetradecin-7-yl)-5-fluoro-3,7-dihydro-4H-pyrrolo[2,3-d]pyrimidin-4-one Disodium Salt], for which the “Human plasma stability (/h), elimination rate constant k” value (“Human plasma stability (/h)” below) in data set [3] was 0.58 h⁻¹. The EC50 came out at 0.13 µM in data set [2] (with digitonin, read-out: STING-293T cell EC50 (μM) Reporter with digitonin (B)) and 5.6 µM in data set [5] (Homo sapiens, THP1-Dual). The “anti-tumor effect (tumor volume)” value in data set [4] and in data set [6] was “anti-tumor effects were observed” throughout. For the compound `Nc1ncnc2c1ncn2[C@@H]1O[C@@H]2COP(=O)(O)O[C@@H]3[C@H](O)[C@@H](COP(=O)(S)O[C@H]2[C@H]1F)O[C@H]3n1cc(F)c2c(=O)[nH]cnc21` (stereo partly drawn) [Example 2, 7-((5R,7R,8R,12aR,14R,15R,15aR,16R)-14-(6-amino-9H-purin-9-yl)-15-fluoro-10,16-dihydroxy-2,10-dioxido-2-sulfanyloctahydro-12H-5,8-methanofuro[3,2-1][1,3,6,9,11,2,10]pentaoxadiphosphacyclotetradecin-7-yl)-5-fluoro-3,7-dihydro-4H-pyrrolo[2,3-d]pyrimidin-4-one di-triethylamine Salt (Optical Isomer)], the “activity level against WT STING” value in data set [2] came out at 112%. Moreover, the “activity level of test compound” value in data set [1] worked out at 88.7% at 30 μM.

Consider `Nc1nc2c(ncn2[C@@H]2O[C@@H]3COP(=O)(O)O[C@H]4[C@@H](O)[C@H](c5cnn6c(N)ncnc56)O[C@@H]4COP(=O)(O)O[C@@H]2[C@@H]3O)c(=O)[nH]1` [Example 13, 2-amino-9-((5R,7R,8R,12aR,14S,15S,15aS,16R)-14-(4-aminopyrazolo[1,5-a][1,3,5]triazin-8-yl)-2,10,15,16-tetrahydroxy-2,10-dioxidooctahydro-12H-5,8-methanofuro[3,2-1][1,3,6,9,11,2,10]pentaoxadiphosphacyclotetradecin-7-yl)-1,9-dihydro-6H-purin-6-one di-triethylamine Salt], for which, in data set [2], the “activity level against WT STING” value was determined as 99%. Turning to `Nc1ncnc2c1ncn2[C@@H]1O[C@@H]2COP(=O)(S)O[C@@H]3[C@H](O)[C@@H](COP(=O)(S)O[C@H]2[C@H]1O)O[C@H]3n1cc(F)c2c(=O)[nH]cnc21` (stereo partly drawn) [Example 5, 7-((5R,7R,8R,12aR,14R,15R,15aS,16R)-14-(6-amino-9H-purin-9-yl)-15,16-dihydroxy-2,10-dioxido-2,10-disulfanyloctahydro-12H-5,8-methanofuro[3,2-1][1,3,6,9,11,2,10]pentaoxadiphosphacyclotetradecin-7-yl)-5-fluoro-3,7-dihydro-4H-pyrrolo[2,3-d]pyrimidin-4-one di-triethylamine Salt (Optical Isomer)], the “Human plasma stability (/h)” value in data set [3] was <0.01 h⁻¹. Besides, the “activity level of test compound” value in data set [1] was 117.4% at 30 μM. With `Nc1ncnc2c1ncn2[C@@H]1O[C@@H]2COP(=O)(S)O[C@@H]3[C@H](O)[C@@H](COP(=O)(S)O[C@H]2[C@H]1F)O[C@H]3n1cc(F)c2c(=O)[nH]cnc21` (stereo partly drawn) [Example 14, 7-((2R,5R,7R,8R,10R,12aR,14R,15R,15aR,16R)-14-(6-amino-9H-purin-9-yl)-15-fluoro-16-hydroxy-2,10-dioxido-2,10-disulfanyloctahydro-12H-5,8-methanofuro[3,2-1][1,3,6,9,11,2,10]pentaoxadiphosphacyclotetradecin-7-yl)-5-fluoro-3,7-dihydro-4H-pyrrolo[2,3-d]pyrimidin-4-one Disodium Salt], the “Human plasma stability (/h)” value in data set [3] was <0.01 h⁻¹. In addition, the “anti-tumor effect (tumor volume)” value in data set [4] and in data set [6] was “anti-tumor effects were observed” in each case. As for `Nc1nc2c(ncn2[C@@H]2O[C@@H]3COP(=O)(O)O[C@H]4[C@@H](O)[C@H](n5cnc6c(N)ncnc65)O[C@@H]4COP(=O)(O)O[C@@H]2[C@@H]3O)c(=O)[nH]1` [cGAMP, 2′,3′-cGAMP, reference compound], the “Human plasma stability (/h)” value in data set [3] worked out at 1.39 h⁻¹. The EC50 in data set [5] worked out at 18 µM.

The record behind these values is patent US20250205270A1, “ANTIBODY-DRUG CONJUGATE PRECURSORS COMPRISING A CYCLIC DINUCLEOTIDE” (TAKEDA PHARMACEUTICAL COMPANY LIMITED, priority 2016, published 2025).
